Assay results taken from ChEMBL document CHEMBL1201862, “PubChem BioAssay data set” (2004).
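Five compound concentrations were applied to cells in 96-well plates for 48 hours; endpoints were derived by simple linear interpolation of the resulting dose-response curve. GI50 = concentration required for 50% inhibition of growth.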 Activity calls are given as the source filed them. Rule as the data show it: active = GI50 up to about 1.1 µM and inactive = higher.

Key:
Assay in all cases: NCI anticancer screen, dose series, 48 h
[1] = system: A498
[2] = system: A549
[3] = system: DU-145
[4] = system: HCT-15
[5] = system: HOP-92
[6] = system: K562
[7] = system: KM12
[8] = system: LOX IMVI
[9] = system: M14
[10] = system: MCF7
[11] = system: MDA-MB-231
[12] = system: MOLT-4
[13] = system: Malme-3M
[14] = system: NCI-H23
[15] = system: NCI/ADR-RES
[16] = system: SN12C
[17] = system: SR
[18] = system: T47D
[19] = system: UACC-62
[20] = system: NCI-H522

Compound: CN(C)CC1CCC/C(=C\c2ccc(OC(=O)c3ccc(Cl)cc3)cc2)C1=O (centres undefined)
- GI50 [1]: 7.26 µM (inactive)
- GI50 [2]: 2.38 µM (inactive)
- GI50 [3]: 2.39 µM (inactive)
- GI50 [4]: 1.57 µM
- GI50 [5]: 2.07 µM (inactive)
- GI50 [6]: 0.912 µM (active)
- GI50 [7]: 1.57 µM (inactive)
- GI50 [8]: 0.493 µM (active)
- GI50 [9]: 1.68 µM (inactive)
- GI50 [10]: 0.33 µM (active)
- GI50 [11]: 2.45 µM (inactive)
- GI50 [12]: 0.661 µM (active)
- GI50 [13]: 2.55 µM (inactive)
- GI50 [14]: 1.69 µM (inactive)
- GI50 [15]: 2.12 µM (inactive)
- GI50 [16]: 2.14 µM (inactive)
- GI50 [17]: 0.583 µM (active)
- GI50 [18]: 0.757 µM (active)
- GI50 [19]: 3.3 µM (inactive)

Compound: CS(=O)(=O)Nc1ccc2ccccc2c1-c1c(NS(C)(=O)=O)ccc2ccccc12
- GI50 [1]: > 25 µM (inactive)
- GI50 [2]: > 25 µM (inactive)
- GI50 [3]: > 25 µM (inactive)
- GI50 [4]: > 25 µM
- GI50 [5]: > 25 µM (inactive)
- GI50 [6]: > 25 µM (inactive)
- GI50 [7]: > 25 µM (inactive)
- GI50 [8]: > 25 µM (inactive)
- GI50 [9]: > 25 µM (inactive)
- GI50 [10]: 1.17 µM (inactive)
- GI50 [11]: > 25 µM (inactive)
- GI50 [12]: > 25 µM (inactive)
- GI50 [13]: > 25 µM (inactive)
- GI50 [14]: > 25 µM (inactive)
- GI50 [20]: > 25 µM (inactive)
- GI50 [15]: > 25 µM (inactive)
- GI50 [16]: > 25 µM (inactive)
- GI50 [17]: > 25 µM (inactive)
- GI50 [18]: > 25 µM (inactive)

Compound: OC1(CCc2ccccc2)COC(C(F)(F)F)(C(F)(F)F)C1 (centres undefined)
- GI50 [1]: > 100 µM (inactive)
- GI50 [2]: > 100 µM (inactive)
- GI50 [3]: > 100 µM (inactive)
- GI50 [4]: > 100 µM
- GI50 [6]: > 100 µM (inactive)
- GI50 [7]: > 100 µM (inactive)
- GI50 [8]: > 100 µM (inactive)
- GI50 [9]: > 100 µM (inactive)
- GI50 [10]: > 100 µM (inactive)
- GI50 [11]: > 100 µM (inactive)
- GI50 [12]: > 100 µM (inactive)
- GI50 [13]: > 100 µM (inactive)
- GI50 [14]: > 100 µM (inactive)
- GI50 [20]: > 100 µM (inactive)
- GI50 [15]: > 100 µM (inactive)
- GI50 [16]: > 100 µM (inactive)
- GI50 [17]: > 100 µM (inactive)
- GI50 [18]: > 100 µM (inactive)
- GI50 [19]: > 100 µM (inactive)

Compound: CSC1=N/C(=C\c2c[nH]c3ccccc23)C(=O)N1
- GI50 [1]: 38.1 µM (inactive)
- GI50 [2]: 69.8 µM (inactive)
- GI50 [3]: 96.8 µM (inactive)
- GI50 [4]: 75.3 µM
- GI50 [5]: > 100 µM (inactive)
- GI50 [6]: 75.9 µM (inactive)
- GI50 [8]: 78.3 µM (inactive)
- GI50 [9]: 73.6 µM (inactive)
- GI50 [10]: 28.8 µM (inactive)
- GI50 [11]: 52.6 µM (inactive)
- GI50 [12]: > 100 µM (inactive)
- GI50 [13]: 36.1 µM (inactive)
- GI50 [14]: > 100 µM (inactive)
- GI50 [15]: 85.7 µM (inactive)
- GI50 [16]: > 100 µM (inactive)
- GI50 [17]: 97.7 µM (inactive)
- GI50 [18]: 53.2 µM (inactive)
- GI50 [19]: 92.9 µM (inactive)

Compound: Cc1cccc(-c2nc3ccc([N+](=O)[O-])cc3c(=O)o2)c1
- GI50 [1]: 28.6 µM (inactive)
- GI50 [2]: 73.3 µM (inactive)
- GI50 [3]: 59.8 µM (inactive)
- GI50 [4]: 74.3 µM
- GI50 [5]: 16 µM (inactive)
- GI50 [6]: 35.3 µM (inactive)
- GI50 [7]: 90.6 µM (inactive)
- GI50 [8]: 26.2 µM (inactive)
- GI50 [10]: 62.5 µM (inactive)
- GI50 [11]: > 100 µM (inactive)
- GI50 [12]: 27.6 µM (inactive)
- GI50 [13]: 51.4 µM (inactive)
- GI50 [14]: 72.8 µM (inactive)
- GI50 [20]: 32.3 µM (inactive)
- GI50 [15]: 26.1 µM (inactive)
- GI50 [16]: 72.3 µM (inactive)
- GI50 [17]: 28.8 µM (inactive)
- GI50 [18]: 47.5 µM (inactive)
- GI50 [19]: 21.1 µM (inactive)
